# Patent US20040137426A1, “Gp41 peptides and methods based thereon for inhibiting HIV fusion to target cells” (priority 2002, published 2004)
# Assays:
# [1] = system: HXB2 (X4 TCLA virus) pseudovirus; experiment: Viral entry, Env pseudovirus with luciferase readout: HXB2; format: cell-based, HIV-1; conditions: from IC50 data of table 3
# Procedure: (§1) In preliminary experiments we tested the panel of peptides for inhibition of HIV-1 infectivity using a single CXCR4-using T cell line-adapted virus isolate: HIV-1IIIB. Serial dilutions of the peptides were added to the target cells immediately followed by virus. After 5-7 days culture, supernatant was tested for viral p24 activity using a sensitive p24 ELISA. […] These viruses carry a luciferase readout and are competent for a single cycle of replication only. We chose to test Env from […] viruses representing: X4 TCLA virus (HXB2); X4 primary isolate (WHO D clade); R5X4 dual tropic primary isolate (W61D) and R5 primary isolates (JRFL and Bal).
# HIV-1 [2] = conditions: for activity compared with T20 and T1249: across clades, Figs 5 and 6; for IC50: read-out: IC50 in hPBMCs, independent assays in hPBMCs (N36E 6, W37Q 5)
# Procedure: The peptides were evaluated against two HIV-1 stains IIIB and BR92/92/021. These two stains were selected in part based on their co-receptor utilization preferences; HIV-1 IIIB utilizes the CXCR4 co-receptor whereas HIV-1 BR92 utilizes CCR5. To test anti-HIV efficacy, fresh Human Peripheral Blood Mononuclear Cells (PBMCs) were obtained from single, normal hepatitis and HIV-1 negative donors. The cells were stimulated by a using CD3+method. Drug testing was performed in a 96 well format in triplicate. Each plate contained control wells (cells+virus), experimental wells (drug+cells+virus) and compound control wells (drug+cells, to monitor cytotoxicity). The read-out for viral infectivity after seven days of infection was based on reverse transcriptase activity of cell free supernatant samples. Drug toxicity was determined in the control well by a standard assay using the tetrazolium compound, which was converted in live cells into a colored formazan product that can readily be monitored on the microtiter plate.
# PBMCs were stimulated via the CD3 antigen that is part of the T cell receptor. […] The T cell preparation contains about 50% CD4+cells that are susceptible to HIV-1 infection. Therefore no further separation between CD4+ and CD8+cells is necessary.
# The data were obtained according to the following protocol:
# Pre-incubate diluted peptides (0 to 50 ug/ml) with virus strain
# Add 3 day anti-CD3 stimulated human peripheral blood mononuclear cells (50,000/well)
# Incubate 37° C. for 6 days in IL-2 containing media
# Test cell-free culture supernatants for reverse transcriptase (RT) activity at day 6
# Test cells in cultures for toxicity using an MTS (CellTiter96 Reagent Promega) staining for cell viability
# All assay results shown were done in triplicate
# JRFL (R5) pseudovirus = experiment: Viral entry, Env pseudovirus with luciferase readout: JRFL; format: cell-based, HIV-1; conditions: from IC50 data of table 3
# Procedure: as §1
# [3] = system: W61D (R5X4 dual tropic primary isolate) pseudovirus; experiment: Viral entry, Env pseudovirus with luciferase readout: W61D; format: cell-based, HIV-1; conditions: for N36E on CCR5+ indicator cells
# Procedure: as §1
# HIV-1 pseudovirus = experiment: Timing of peptide addition and inhibition of pseudovirus infection; format: cell-based
# HIV-1 [4] = conditions: for activity compared with the new analogues of T-20, T-21 and DP219: qualitative comparison
# Procedure: Peptides were tested in vitro for inhibition of early steps in cell-free HIV-1 infection and direct cell-to-cell spread of virus using T-cell line-adapted and primary isolates and recombinant HIV-1 viruses pseudotyped for env using CCR5, CXCR4 or both coreceptors.
# Selected de novo designed peptides according to the invention (S291, N36E, W37Q and W371) and the new analogues of T20, T21 and DP219 were evaluated for inhibition of both cell-free HIV-1 infection and of direct cell-to-cell spread using a range of T-cell line-adapted and primary isolates and recombinant HIV-1 pseudotyped for env derived from patient isolates of different clades.
# HIV-1 IIIB = format: cell-based; conditions: lab-adapted HIV-1 IIIB
# Procedure: Both involved the culture of the virus with the peptide or its scrambled form for 1 hr at 37° C., 5% CO2 and then subsequent addition of target cells for 7 days. Inhibition was assessed using an enzyme-linked immunosorbent assay (ELISA) of viral core protein p24 antigen.
# [5] = system: WHO isolate Clade D (X4) pseudovirus; experiment: Viral entry, Env pseudovirus with luciferase readout: WHO isolate Clade D; format: cell-based, HIV-1; conditions: from IC50 data of table 3
# Procedure: as §1
# [6] = target: HIV-1 IIIB gp41 (HIV-1 IIIB); experiment: cell-based or functional assay
# [7] = system: HL2/3 cells expressing HIV-1IIIB Env fusing with MAGI-CCR5 cells; format: cell-based; conditions: MAGI-CCR5 / HL2/3; read-out: IC50 cell fusion assay
# Procedure: A second panel of anti-HIV-1 peptides according to the invention was evaluated for using the MAGI-CCR5 antiviral assay and a gene reporter cell fusion assay. MAGI-CCR5 is an HIV-1 indicator cell line derived from HeLa cells that express CD4 and the HIV-1 coreceptors CCR5 and CXCR4. These cells contain a gene reporter cassette of β-galactosidase that is expressed from an HIV-1 LTR. Expression of the reporter gene is dependent on the production of HIV-1 tat that occurs following HIV-1 entry. The read-out for viral infectivity after two days of incubation is measurement of β-galactosidase expression detectable by chemoluminescence. The assay structure in the 96 well format as that used in the PBMC assay. The cell fusion assay uses the same indicator cell line (MAGI-CCR5), which is incubated with a HeLa cell based cell line HL2/3 that expresses HIV-1IIIB Env on its surface and contains Tat and Rev expression cassettes. When HL2/3 cells fuse with the MAGI-CCR5 cells, HIV-1 Tat is delivered into the indicator cells leading to activation of the β-galactosidase gene which is under the control of the HIV-1 LTR. The enzyme activity is read out in a similar fashion by chemoluminescence using the same assay structure as mentioned above. This assay is uniquely sensitive to entry inhibitors. […]
compound,measurement,setting,value
CC[C@H](C)[C@H](NC(=O)[C@H](CC(C)C)NC(=O)[C@H](CO)NC(=O)[C@H](Cc1ccc(O)cc1)NC(=O)[C@@H](NC(=O)[C@H](CC(C)C)NC(=O)[C@H](CO)NC(=O)[C@@H](NC(=O)[C@H](Cc1ccc(O)cc1)NC(=O)[C@H](CC(N)=O)NC(=O)[C@H](CC(=O)O)NC(=O)[C@@H](NC(=O)[C@H](CCC(=O)O)NC(=O)[C@H](CCCNC(=N)N)NC(=O)[C@H](CCC(=O)O)NC(=O)[C@H](Cc1c[nH]c2ccccc12)NC(=O)[C@H](CCC(=O)O)NC(=O)[C@H](CCSC)NC(=O)[C@H](Cc1c[nH]c2ccccc12)NC(=O)[C@@H](NC(=O)[C@H](CCSC)NC(=O)[C@H](CC(N)=O)NC(=O)[C@@H](N)CC(N)=O)[C@@H](C)O)[C@@H](C)CC)[C@@H](C)O)[C@@H](C)CC)C(=O)N[C@@H](CCC(=O)O)C(=O)N[C@@H](CCC(=O)O)C(=O)N[C@@H](CO)C(=O)N[C@@H](CCC(N)=O)C(=O)N[C@@H](CC(N)=O)C(=O)N[C@@H](CCC(N)=O)C(=O)N[C@@H](CCC(N)=O)C(=O)N[C@@H](CCC(=O)O)C(=O)N[C@@H](CCCCN)C(=O)N[C@@H](CC(N)=O)C(=O)N[C@@H](CCC(=O)O)C(=O)N[C@@H](CCC(N)=O)C(=O)N[C@@H](CCC(=O)O)C(=O)O [Peptide N36E],"fold more active than Y36F, HXB2 pseudovirus",[1],5 fold
same,activity compared with T20 and T1249,HIV-1 [2],compare well to both T20 and to T1249
same,IC50,HIV-1 [2],0.002 ± 0.001 µM
same,"fold more active than Y36F, JRFL pseudovirus",JRFL (R5) pseudovirus,80 fold
same,"fold more active than Y36F, W61D pseudovirus",[3],18 fold
same,"inhibition, peptide preincubated with target cells then washed prior to addition of virus",HIV-1 pseudovirus; cells washed before virus,no inhibitory effect
same,"inhibition, virus preincubated with cells for 1 h prior to addition of peptide",HIV-1 pseudovirus; peptide added 1 h after virus and cells,complete absence of inhibition
same,"inhibitory effect, simultaneous mixing of virus, cells and peptide",HIV-1 pseudovirus; simultaneous addition,most pronounced inhibitory effect
same,"inhibition, virus preincubated with peptide 1 h at 37° C. then washed by ultrafiltration prior to addition to cells",HIV-1 pseudovirus; virus washed before cells,weak but poorly reproducible inhibition
same,"fold more potent than analogues Y36F, K42K and E30E, frequently",HIV-1 [4],10 fold
same,"activity compared with the new analogues of T-20, T-21 and DP219",HIV-1 [4],significantly greater potency
CC[C@H](C)[C@H](NC(=O)[C@H](CCC(=O)O)NC(=O)[C@H](CCCNC(=N)N)NC(=O)[C@H](CCC(=O)O)NC(=O)[C@H](Cc1c[nH]c2ccccc12)NC(=O)[C@H](CCC(=O)O)NC(=O)[C@H](CCSC)NC(=O)[C@H](Cc1c[nH]c2ccccc12)NC(=O)[C@@H](NC(=O)[C@H](CCSC)NC(=O)[C@H](CC(N)=O)NC(=O)[C@H](CC(N)=O)NC(=O)[C@@H](N)Cc1c[nH]c2ccccc12)[C@@H](C)O)C(=O)N[C@@H](CC(=O)O)C(=O)N[C@@H](CC(N)=O)C(=O)N[C@@H](Cc1ccc(O)cc1)C(=O)N[C@H](C(=O)N[C@@H](CO)C(=O)N[C@@H](CC(C)C)C(=O)O)[C@@H](C)O [Peptide W19L],MIC HIV-1IIIB infectivity,HIV-1 IIIB,0.06 mg/L
CC[C@H](C)[C@H](NC(=O)[C@H](CC(C)C)NC(=O)[C@H](CO)NC(=O)[C@H](Cc1ccc(O)cc1)NC(=O)[C@@H](NC(=O)[C@H](CC(C)C)NC(=O)[C@H](CO)NC(=O)[C@@H](NC(=O)[C@H](Cc1ccc(O)cc1)NC(=O)[C@H](CC(N)=O)NC(=O)[C@H](CC(=O)O)NC(=O)[C@@H](NC(=O)[C@H](CCC(=O)O)NC(=O)[C@H](CCCNC(=N)N)NC(=O)[C@H](CCC(=O)O)NC(=O)[C@H](Cc1c[nH]c2ccccc12)NC(=O)[C@H](CCC(=O)O)NC(=O)[C@H](CCSC)NC(=O)[C@H](Cc1c[nH]c2ccccc12)NC(=O)[C@@H](NC(=O)[C@H](CCSC)NC(=O)[C@H](CC(N)=O)NC(=O)[C@H](CC(N)=O)NC(=O)[C@H](Cc1c[nH]c2ccccc12)NC(=O)[C@@H](NC(=O)[C@H](CCC(N)=O)NC(=O)[C@H](CCC(=O)O)NC(=O)[C@H](CC(C)C)NC(=O)[C@H](CO)NC(=O)[C@H](CCCCN)NC(=O)[C@H](CC(N)=O)NC(=O)[C@H](CO)NC(=O)[C@@H](N)Cc1c[nH]c2ccccc12)[C@@H](C)CC)[C@@H](C)O)[C@@H](C)CC)[C@@H](C)O)[C@@H](C)CC)C(=O)N[C@@H](CCC(=O)O)C(=O)N[C@@H](CCC(=O)O)C(=O)N[C@@H](CO)C(=O)N[C@@H](CCC(N)=O)C(=O)O [Peptide W37Q],activity compared with T20 and T1249,HIV-1 [2],compare well to both T20 and to T1249
same,IC50,HIV-1 [2],0.005 ± 0.002 µM
same,"fold more active than Y36F, JRFL pseudovirus",JRFL (R5) pseudovirus,~15 fold
same,"fold more active than Y36F, W61D pseudovirus",[3],~20 fold
same,"fold more potent than analogues Y36F, K42K and E30E, frequently",HIV-1 [4],10 fold
same,"activity compared with the new analogues of T-20, T-21 and DP219",HIV-1 [4],significantly greater potency
same,"fold more active than Y36F, WHO D clade pseudovirus",[5],approximately 22 fold
"CC[C@H](C)[C@H](NC(=O)[C@H](CC(C)C)NC(=O)[C@H](CO)NC(=O)[C@H](Cc1ccc(O)cc1)NC(=O)[C@@H](NC(=O)[C@H](CC(C)C)NC(=O)[C@H](CO)NC(=O)[C@@H](NC(=O)[C@H](Cc1ccc(O)cc1)NC(=O)[C@H](CC(N)=O)NC(=O)[C@H](CC(=O)O)NC(=O)[C@@H](NC(=O)[C@H](CCC(=O)O)NC(=O)[C@H](CCCNC(=N)N)NC(=O)[C@H](CCC(=O)O)NC(=O)[C@H](Cc1c[nH]c2ccccc12)NC(=O)[C@@H](N)CCC(=O)O)[C@@H](C)CC)[C@@H](C)O)[C@@H](C)CC)C(=O)N[C@@H](CCC(=O)O)C(=O)N[C@@H](CCC(=O)O)C(=O)N[C@@H](CO)C(=O)N[C@@H](CCC(N)=O)C(=O)N[C@@H](CC(N)=O)C(=O)N[C@@H](CCC(N)=O)C(=O)N[C@@H](CCC(N)=O)C(=O)N[C@@H](CCC(=O)O)C(=O)N[C@@H](CCCCN)C(=O)N[C@@H](CC(N)=O)C(=O)N[C@@H](CCC(=O)O)C(=O)N[C@@H](CCC(N)=O)C(=O)N[C@@H](CCC(=O)O)C(=O)O [Synthesised DP219, reference compound]",ID50% HIV-1IIIB infectivity,HIV-1 IIIB,6.00 mg/L
same,ID90 HIV-1IIIB infectivity,HIV-1 IIIB,12.5 mg/L
Recombinant DP178 (peptide),"ID50%, HIV-1IIIB infectivity",[6],0.05 mg/L
same,"ID90, HIV-1IIIB infectivity",[6],0.09 mg/L
same,"MIC, HIV-1IIIB infectivity",[6],0.009 mg/L
T20 (peptide),"IC50, cell fusion assay (MAGI-CCR5 cells with HL2/3 cells expressing HIV-1IIIB Env)",[6],0.03 µM
WNASWSNKSLEQIWNNMTWMEWEREIDNYTSLIYSLI [Peptide W37I],"activity compared with the new analogues of T-20, T-21 and DP219",HIV-1 [4],broadly similar levels of activity
enfuvirtide,IC50,[7],~0.03 µM
